Like-named read-outs stand apart in the source and are kept apart here.
Experiments:
[1] = biological target: KRAS WT (Homo sapiens (Human), UniProt P01116+P62937); test: Ras-Raf disruption/FRET/MOA assay (BRAF RBD, Cyclophilin A); format: biochemical; conditions: read-out: KRAS WT FRET data IC50
Method in brief: (§1)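 His6-K-Ras-GMPPNP (12.5 nM), GST-BRAF RBD (50 nM) and tagless Cyclophilin A (25 μM) were combined in 25 mM HEPES pH 7.3 with 100 mM NaCl, 5 mM MgCl2, 0.1% BSA and 0.002% Tween20, with compound as a 10-point 3-fold series from 30 μM final, then incubated 3 h at 25° C.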

[2] = biological target: KRAS G13D (Homo sapiens (Human), UniProt P01116+P62937, G13D); test: as above; format: biochemical; conditions: read-out: KRAS G13D FRET data IC50
Method in brief: as §1

[3] = biological target: KRAS G12C (Homo sapiens (Human), UniProt P01116+P62937, G12C); test: as above; format: biochemical; conditions: read-out: KRAS G12C FRET IC50
Method in brief: as §1

[4] = biological target: NRAS G12C (Homo sapiens (Human), UniProt P01111+P62937, G12C); test: as above; format: biochemical; conditions: read-out: NRAS G12C FRET data IC50
Method in brief: (§2)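 TR-FRET read after 1.5 h with 10 nM anti-His Eu-W1024 and 50 nM anti-GST APC, following 3 h at 25 °C of GMPPNP-loaded His6-Ras (12.5 nM), GST-BRAF RBD (50 nM) and Cyclophilin A (25 μM) with compound from 30 μM final, 10 points, 3-fold. IC50 reported; pH 7.3 HEPES, 100 mM NaCl.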

[5] = biological target: KRAS G12D (Homo sapiens (Human), UniProt P01116+P62937, G12D); test: as above; format: biochemical; conditions: read-out: KRAS G12D FRET IC50
Method in brief: as §1

[6] = biological target: KRAS Q61H (Homo sapiens (Human), UniProt P01116+P62937, Q61H); test: as above; format: biochemical
Method in brief: as §1

[7] = biological target: KRAS G13C (Homo sapiens (Human), UniProt P01116+P62937, G13C); test: as above; format: biochemical; conditions: read-out: KRAS G13C FRET IC50
Method in brief: as §1

[8] = biological target: KRAS G12S (Homo sapiens (Human), UniProt P01116+P62937, G12S); test: as above; format: biochemical; conditions: read-out: KRAS G12S FRET IC50
Method in brief: as §1

[9] = biological target: KRAS G12V (Homo sapiens (Human), UniProt P01116+P62937, G12V); test: as above; format: biochemical; conditions: read-out: KRAS G12V FRET IC50
Method in brief: as §1

[10] = test system: Capan-1 cells (K-Ras G12V); test: CellTiter-Glo cell viability, Capan-1; format: cell-based, human; conditions: K-Ras G12V, 5-day treatment, read-out: Capan-1 Cell Viability IC50
Method in brief: (§3)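 Endpoint: CellTiter-Glo luminescence on day 5, following ~30 min at room temperature. Data as (sample/mean DMSO)×100, four-parameter logistic fit.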

[11] = biological target: NRAS WT (Homo sapiens (Human), UniProt P01111+P62937); test: Ras-Raf disruption/FRET/MOA assay (BRAF RBD, Cyclophilin A); format: biochemical
Method in brief: as §2

[12] = test system: K-Ras G12C (NCI-H358 cells); test: Potency assay: pERK in NCI-H358 cells; format: cell-based, human; conditions: NCI-H358 cells, 4 hours, read-out: pERK EC50 (H358 KRAS G12C)
Method in brief: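 Cells plated the day before were exposed for 4 h at 37° C, 5% CO2 to a 10-point, 3-fold DMSO dilution series (10 mM top stock), in duplicate. Phospho-ERK was read by AlphaLISA SureFire Ultra or by In-Cell Western with DRAQ5 DNA stain, and IC50 came from a 4-parameter sigmoidal fit.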

[13] = test system: NCI-H358 cells (K-Ras G12C); test: CellTiter-Glo cell viability, NCI-H358; format: cell-based, human; conditions: K-Ras G12C, 5-day treatment, read-out: H358 Cell Viability IC50
Method in brief: as §3

[14] = biological target: K-Ras G12C(GMP-PNP) binding to BRAF RBD (Homo sapiens (Human), UniProt P01116+P62937, G12C); test: Disruption of BRAF RBD interaction with K-Ras (FRET / MOA assay), K-Ras G12C; format: biochemical; conditions: read-out: KRAS G12C FRET IC50
Method in brief: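 First, test compounds in a 10-point 3-fold series (30 μM final top) were incubated for 3 hours at 25° C with nucleotide-loaded Ras, cyclophilin A and a BRAF RBD construct. Next, Eu anti-His and allophycocyanin anti-GST detection reagents were added for 1.5 hours. Finally, IC50s were derived from loss of TR-FRET signal against DMSO.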

[15] = test system: NCI-H358 (K-Ras G12C); test: CellTiter-Glo cell viability assay, NCI-H358; format: cell-based, human; conditions: 5-day treatment, read-out: H358 Cell Viability assay data (K-Ras G12C, IC50)
Method in brief: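 After direct compound addition, plates were incubated to day 5 and equilibrated at room temperature for about 30 minutes before CellTiter-Glo reading. Values derive from luminescence relative to the DMSO mean, fitted with a four-parameter logistic model.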

Sequence of NRAS WT (P01111 whole entry): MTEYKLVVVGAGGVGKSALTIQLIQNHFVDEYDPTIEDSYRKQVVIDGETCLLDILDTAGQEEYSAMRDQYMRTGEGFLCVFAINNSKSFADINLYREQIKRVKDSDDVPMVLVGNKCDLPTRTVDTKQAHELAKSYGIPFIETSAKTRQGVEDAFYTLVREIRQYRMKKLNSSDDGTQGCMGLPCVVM
Sequence of NRAS WT (P62937 whole entry): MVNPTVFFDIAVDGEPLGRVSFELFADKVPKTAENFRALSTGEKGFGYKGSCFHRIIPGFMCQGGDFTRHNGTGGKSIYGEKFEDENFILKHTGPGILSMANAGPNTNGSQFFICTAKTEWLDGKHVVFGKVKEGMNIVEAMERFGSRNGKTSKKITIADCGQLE
Sequence of NRAS G12C (P01111 whole entry G12C): as the sequence (P01111 whole entry) above, with G12C counted along it
Sequence of NRAS G12C (P62937 whole entry): as the sequence (P62937 whole entry) above

CCn1c(-c2cccnc2[C@H](C)OC)c2c3cc(ccc31)-c1csc(n1)C[C@H](NC(=O)[C@H](C(C)C)N(C)C(=O)N1CC([C@@H](C)OC)C1)C(=O)N1CCC[C@H](N1)C(=O)OCC(C)(C)C2 [Compound A278]
IC50 [1]: 10 to 100 nM
IC50 [2]: 100 to 1000 nM
IC50 [3]: 10 to 100 nM
IC50 [4]: 10 to 100 nM
IC50 [5]: 100 to 1000 nM
IC50 [6]: 10 to 100 nM
IC50 [7]: 100 to 1000 nM
IC50 [8]: 100 to 1000 nM
IC50 [9]: 10 to 100 nM
IC50 ([10]; Homo sapiens, CAPAN-1, 120 h): 10 to 100 nM

CCn1c(-c2cccnc2[C@H](C)OC)c2c3cc(ccc31)-c1csc(n1)C[C@H](NC(=O)[C@H](C(C)C)N(C)C(=O)N1CC[C@@H]1C)C(=O)N1CCC[C@H](N1)C(=O)OCC(C)(C)C2 [Compound A304]
IC50 [1]: 100 to 1000 nM
IC50 [2]: 100 to 1000 nM
IC50 [3]: 10 to 100 nM
IC50 [4]: 10 to 100 nM
IC50 [5]: 100 to 1000 nM
IC50 [6]: 10 to 100 nM
IC50 [7]: 100 to 1000 nM
IC50 [8]: 100 to 1000 nM
IC50 [9]: 100 to 1000 nM
IC50 [11]: 10 to 100 nM
IC50 ([10]; Homo sapiens, CAPAN-1, 120 h): 10 to 100 nM

CCn1c(-c2cccnc2[C@H](C)OC)c2c3cc(ccc31)-c1cc(O)cc(c1)C[C@H](NC(=O)[C@H](C(C)C)N(C)C(=O)[C@@H]1OCC[C@@H]1c1ccccc1)C(=O)N1CCC[C@H](N1)C(=O)OCC(C)(C)C2 [Compound A415]
IC50 [1]: 10 to 100 nM
IC50 [2]: 10 to 100 nM
IC50 [3]: 10 to 100 nM
IC50 [4]: 10 to 100 nM
IC50 [5]: 10 to 100 nM
IC50 [7]: 10 to 100 nM
IC50 [8]: 10 to 100 nM
IC50 [9]: 10 to 100 nM
IC50 [11]: 10 to 100 nM
EC50 ([12]; Homo sapiens): < 5000 nM
IC50 ([10]; Homo sapiens, CAPAN-1, 120 h): 10 to 100 nM
IC50 ([13]; Homo sapiens, NCI-H358, 120 h): 10 to 100 nM

CCn1c(-c2cccnc2[C@H](C)OC)c2c3cc(ccc31)-c1cc(O)cc(c1)C[C@H](NC(=O)[C@H](C(C)C)N(C)C(=O)[C@H]1OCC[C@H]1N)C(=O)N1CCC[C@H](N1)C(=O)OCC(C)(C)C2 [Compound A420]
IC50 [1]: 100 to 1000 nM
IC50 [2]: 100 to 1000 nM
IC50 [3]: 10 to 100 nM
IC50 [4]: 100 to 1000 nM
IC50 [5]: 100 to 1000 nM
IC50 [7]: 10 to 100 nM
IC50 [8]: 100 to 1000 nM
IC50 [9]: 100 to 1000 nM
IC50 [14]: 100 to 1000 nM
IC50 ([15]; Homo sapiens, NCI-H358, 120 h): 10 to 100 nM
IC50 ([10]; Homo sapiens, CAPAN-1, 120 h): 100 to 1000 nM
IC50 ([13]; Homo sapiens, NCI-H358, 120 h): 100 to 1000 nM

CCn1c(-c2cc(N3CCN(C)CC3)cnc2[C@H](C)OC)c2c3cc(ccc31)-c1csc(n1)C[C@H](NC(=O)[C@H](C(C)C)N(C)C(=O)[C@@H]1OCC[C@@H]1c1ccncc1)C(=O)N1CCC[C@H](N1)C(=O)OCC(C)(C)C2 [Compound A450]
IC50 [1]: 100 to 1000 nM
IC50 [2]: 100 to 1000 nM
IC50 [3]: 10 to 100 nM
IC50 [4]: 10 to 100 nM
IC50 [5]: 100 to 1000 nM
IC50 [6]: 10 to 100 nM
IC50 [7]: 100 to 1000 nM
IC50 [8]: 100 to 1000 nM
IC50 [9]: 100 to 1000 nM
IC50 [11]: 10 to 100 nM

CCn1c(-c2cc(N3CCN(C)CC3)cnc2[C@H](C)OC)c2c3cc(ccc31)-c1csc(n1)C[C@H](NC(=O)[C@H](C(C)C)N(C)C(=O)N1CC(C3COC3)C1)C(=O)N1CCC[C@H](N1)C(=O)OCC(C)(C)C2 [Compound A465]
IC50 [1]: 10 to 100 nM
IC50 [2]: 100 to 1000 nM
IC50 [3]: 10 to 100 nM
IC50 [4]: 10 to 100 nM
IC50 [5]: 100 to 1000 nM
IC50 [6]: 10 to 100 nM
IC50 [7]: 10 to 100 nM
IC50 [8]: 10 to 100 nM
IC50 [9]: 10 to 100 nM
IC50 [11]: 10 to 100 nM

CCn1c(-c2cccnc2[C@H](C)OC)c2c3cc(ccc31)-c1csc(n1)C[C@H](NC(=O)[C@H](C(C)C)N(C)C(=O)N1CC(Cc3cnn(C)c3)C1)C(=O)N1CCC[C@H](N1)C(=O)OCC(C)(C)C2 [Compound A500]
IC50 [1]: 10 to 100 nM
IC50 [2]: 100 to 1000 nM
IC50 [3]: 10 to 100 nM
IC50 [4]: 10 to 100 nM
IC50 [5]: 100 to 1000 nM
IC50 [6]: 10 to 100 nM
IC50 [7]: 10 to 100 nM
IC50 [8]: 10 to 100 nM
IC50 [9]: 10 to 100 nM
IC50 [11]: 10 to 100 nM

CCO[C@@H]1c2nc(cs2)-c2ccc3c(c2)c(c(-c2cccnc2[C@H](C)OC)n3CC)CC(C)(C)COC(=O)[C@@H]2CCCN(N2)C(=O)[C@H]1NC(=O)[C@H]1[C@H](C)[C@@H]1c1cn(C)cn1 [Compound A507, (1R,2S,3R)—N-((6^3S,3S,4S,Z)-3-ethoxy-1^1-ethyl-1^2-(2-((S)-1-methoxyethyl)pyridin-3-yl)-10, 10-dimethyl-5,7-dioxo-6^1,6^2,6^3,6^4,6^5,6^6-hexahydro-1^1H-8-oxa-2 (4,2)-thiazola-1 (5,3)-indola-6 (1,3)-pyridazinacycloundecaphane-4-yl)-2-methyl-3-(1-methyl-1H-imidazol-4-yl) cyclopropane-1-carboxamide]
IC50 [3]: 10 to 100 nM
IC50 [5]: 10 to 100 nM
IC50 [6]: 10 to 100 nM
IC50 [7]: 10 to 100 nM
IC50 [8]: 10 to 100 nM
IC50 [9]: 10 to 100 nM
IC50 [14]: 100 to 1000 nM
IC50 [15]: 100 to 1000 nM
IC50 [10]: 100 to 1000 nM
IC50 [13]: 10 to 100 nM

(2S)—N-[(8S,14S)-22-ethyl-4-hydroxy-18, 18-dimethyl-21-[6-(4-methylpiperazin-1-yl) pyridin-3-yl]-9,15-dioxo-16-oxa-10,22,28-triazapentacyclo [18.5.2.1^2,6.1^10,14.0^23,27]nonacosa-1 (26), 2,4,6 (29), 20,23 (27),24-heptaen-8-yl]-3-methyl-2-{N-methyl-1-[(3S)-1-(prop-2-enoyl) pyrrolidin-3-yl]formamido}butanamide [Compound A89]
IC50 [3]: 100 to 1000 nM
IC50 [5]: 100 to 1000 nM
IC50 [6]: 10 to 100 nM
IC50 [7]: 10 to 100 nM
IC50 [8]: 100 to 1000 nM
IC50 [9]: 100 to 1000 nM
EC50 [12]: < 5000 nM
IC50 [15]: 10 to 100 nM
IC50 [10]: 1000 to 10000 nM

From patent US20250195521A1 (Revolution Medicines, Inc., priority 2020, published 2025)
